Assays:
SW-620 = assay: NCI-60 single-dose screen; type: cell-based; conditions: Homo sapiens, single dose 10 µM, '-' = no inhibition, read-out: % Growth Inhibition
Summary of the method: (§1)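 NCI DTP single-dose screen; 10 μM compound; 60-line panel, nine cancer types.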

HCT-15 = assay: NCI-60 single-dose screen; type: cell-based; conditions: Homo sapiens, single dose 10 µM, '-' = no inhibition, read-out: % Growth Inhibition
Summary of the method: as §1

SK-MEL-28 = assay: NCI-60 single-dose screen; type: cell-based; conditions: Homo sapiens, single dose 10 µM, '-' = no inhibition, read-out: % Growth Inhibition
Summary of the method: as §1

NCI-H522 = assay: NCI-60 single-dose screen; type: cell-based; conditions: Homo sapiens, single dose 10 µM, '-' = no inhibition, read-out: % Growth Inhibition
Summary of the method: as §1

DU-145 = assay: NCI-60 single-dose screen; type: cell-based; conditions: Homo sapiens, single dose 10 µM, '-' = no inhibition, read-out: % Growth Inhibition
Summary of the method: as §1

HT29 = assay: NCI-60 single-dose screen; type: cell-based; conditions: Homo sapiens, HT-29, single dose 10 µM, '-' = no inhibition, read-out: % Growth Inhibition
Summary of the method: as §1

T-47D = assay: NCI-60 single-dose screen; type: cell-based; conditions: Homo sapiens, T47D, single dose 10 µM, '-' = no inhibition, read-out: % Growth Inhibition
Summary of the method: as §1

A498 = assay: NCI-60 single-dose screen; type: cell-based; conditions: Homo sapiens, single dose 10 µM, '-' = no inhibition, read-out: % Growth Inhibition
Summary of the method: as §1

SK-MEL-5 = assay: NCI-60 single-dose screen; type: cell-based; conditions: Homo sapiens, single dose 10 µM, '-' = no inhibition, read-out: % Growth Inhibition
Summary of the method: as §1

OVCAR-5 = assay: NCI-60 single-dose screen; type: cell-based; conditions: Homo sapiens, single dose 10 µM, '-' = no inhibition, read-out: % Growth Inhibition
Summary of the method: as §1

HL-60(TB) = assay: NCI-60 single-dose screen; type: cell-based; conditions: Homo sapiens, single dose 10 µM, '-' = no inhibition, read-out: % Growth Inhibition
NCI-H322M = assay: NCI-60 single-dose screen; type: cell-based; conditions: Homo sapiens, single dose 10 µM, '-' = no inhibition, read-out: % Growth Inhibition
Summary of the method: as §1

SK-OV-3 = assay: NCI-60 single-dose screen; type: cell-based; conditions: Homo sapiens, single dose 10 µM, '-' = no inhibition, read-out: % Growth Inhibition
Summary of the method: as §1

NCI-H460 = assay: NCI-60 single-dose screen; type: cell-based; conditions: Homo sapiens, single dose 10 µM, '-' = no inhibition, read-out: % Growth Inhibition
Summary of the method: as §1

SF-268 = assay: NCI-60 single-dose screen; type: cell-based; conditions: Homo sapiens, single dose 10 µM, '-' = no inhibition, read-out: % Growth Inhibition
Summary of the method: as §1

CCRF-CEM = assay: NCI-60 single-dose screen; type: cell-based; conditions: Homo sapiens, single dose 10 µM, '-' = no inhibition, read-out: % Growth Inhibition
Summary of the method: as §1

K-562 = assay: NCI-60 single-dose screen; type: cell-based; conditions: Homo sapiens, K562, single dose 10 µM, '-' = no inhibition, read-out: % Growth Inhibition
Summary of the method: as §1

TK-10 = assay: NCI-60 single-dose screen; type: cell-based; conditions: Homo sapiens, single dose 10 µM, '-' = no inhibition, read-out: % Growth Inhibition
Summary of the method: as §1

U251 = assay: NCI-60 single-dose screen; type: cell-based; conditions: Homo sapiens, U-251, single dose 10 µM, '-' = no inhibition, read-out: % Growth Inhibition
Summary of the method: as §1

CAKI-1 = assay: NCI-60 single-dose screen; type: cell-based; conditions: Homo sapiens, single dose 10 µM, '-' = no inhibition, read-out: % Growth Inhibition
Summary of the method: as §1

UACC-62 = assay: NCI-60 single-dose screen; type: cell-based; conditions: Homo sapiens, single dose 10 µM, '-' = no inhibition, read-out: % Growth Inhibition
Summary of the method: as §1

MOLT-4 = assay: NCI-60 single-dose screen; type: cell-based; conditions: Homo sapiens, single dose 10 µM, '-' = no inhibition, read-out: % Growth Inhibition
Summary of the method: as §1

M14 = assay: NCI-60 single-dose screen; type: cell-based; conditions: Homo sapiens, single dose 10 µM, '-' = no inhibition, read-out: % Growth Inhibition
Summary of the method: as §1

SF-295 = assay: NCI-60 single-dose screen; type: cell-based; conditions: Homo sapiens, single dose 10 µM, '-' = no inhibition, read-out: % Growth Inhibition
Summary of the method: as §1

MDA-MB-468 = assay: NCI-60 single-dose screen; type: cell-based; conditions: Homo sapiens, single dose 10 µM, '-' = no inhibition, read-out: % Growth Inhibition
Summary of the method: as §1

LOX IMVI = assay: NCI-60 single-dose screen; type: cell-based; conditions: Homo sapiens, single dose 10 µM, '-' = no inhibition, read-out: % Growth Inhibition
Summary of the method: as §1

KM12 = assay: NCI-60 single-dose screen; type: cell-based; conditions: Homo sapiens, single dose 10 µM, '-' = no inhibition, read-out: % Growth Inhibition
Summary of the method: as §1

SK-MEL-2 = assay: NCI-60 single-dose screen; type: cell-based; conditions: Homo sapiens, single dose 10 µM, '-' = no inhibition, read-out: % Growth Inhibition
Summary of the method: as §1

HCC-2998 = assay: NCI-60 single-dose screen; type: cell-based; conditions: Homo sapiens, single dose 10 µM, '-' = no inhibition, read-out: % Growth Inhibition
Summary of the method: as §1

HOP-62 = assay: NCI-60 single-dose screen; type: cell-based; conditions: Homo sapiens, single dose 10 µM, '-' = no inhibition, read-out: % Growth Inhibition
Summary of the method: as §1

786-0 = assay: NCI-60 single-dose screen; type: cell-based; conditions: Homo sapiens, single dose 10 µM, '-' = no inhibition, read-out: % Growth Inhibition
Summary of the method: as §1

NCI-H23 = assay: NCI-60 single-dose screen; type: cell-based; conditions: Homo sapiens, single dose 10 µM, '-' = no inhibition, read-out: % Growth Inhibition
Summary of the method: as §1

OVCAR-4 = assay: NCI-60 single-dose screen; type: cell-based; conditions: Homo sapiens, single dose 10 µM, '-' = no inhibition, read-out: % Growth Inhibition
Summary of the method: as §1

ACHN 1 = assay: NCI-60 single-dose screen; type: cell-based; conditions: Homo sapiens, single dose 10 µM, '-' = no inhibition, read-out: % Growth Inhibition
Summary of the method: as §1

Row | SMILES | inhibition at 10 µM (SW-620) | inhibition at 10 µM (HCT-15) | inhibition at 10 µM (SK-MEL-28) | inhibition at 10 µM (NCI-H522) | inhibition at 10 µM (DU-145) | inhibition at 10 µM (HT29) | inhibition at 10 µM (T-47D) | inhibition at 10 µM (A498) | inhibition at 10 µM (SK-MEL-5) | inhibition at 10 µM (OVCAR-5) | inhibition at 10 µM (HL-60(TB)) | inhibition at 10 µM (NCI-H322M) | inhibition at 10 µM (SK-OV-3) | inhibition at 10 µM (NCI-H460) | inhibition at 10 µM (SF-268) | inhibition at 10 µM (CCRF-CEM) | inhibition at 10 µM (K-562) | inhibition at 10 µM (TK-10) | inhibition at 10 µM (U251) | inhibition at 10 µM (CAKI-1) | other results
1 | CCCSc1nc(-c2ccc(Cl)cc2)cc(-c2ccc(OC)c(OC)c2)n1 [Compound 25, 4-(4-Chlorophenyl)-6-(3,4-dimethoxyphenyl)-2-(propylthio)pyrimidine] | 3.63% | 20.9% | 17.4% | 8% | 17.6% | 14.7% | 34.5% | < 0% | 0.38% | 4.78% | 15.5% | 4.54% | 2.94% | < 0% | 6.85% | 11.2% | 27.1% | 11.6% | 7.53% | 13.5% | inhibition at 10 µM (UACC-62): 3.23%; inhibition at 10 µM (MOLT-4): 19.1%; inhibition at 10 µM (M14): < 0%; inhibition at 10 µM (SF-295): 5.66%; inhibition at 10 µM (MDA-MB-468): < 0%; inhibition at 10 µM (LOX IMVI): 1.51%; inhibition at 10 µM (KM12): 25.5%; inhibition at 10 µM (SK-MEL-2): 14.9%; inhibition at 10 µM (HCC-2998): 4.26%; inhibition at 10 µM (HOP-62): < 0%; inhibition at 10 µM (786-0): < 0%; inhibition at 10 µM (NCI-H23): 2.74%; inhibition at 10 µM (OVCAR-4): 20.2%; inhibition at 10 µM (ACHN 1): 7.82%; melting point: 217 to 219 °C
2 | COc1ccc(-c2cc(-c3cccc(OC)c3)nc(SC)n2)cc1 [Compound 16, 6-(3-Methoxyphenyl)-4-(4-methoxyphenyl)-2-(methylthio)pyrimidine] | 1.89% | 19.5% | < 0% | 14.1% | 6.56% | 26.2% | 22.2% | < 0% | 6.46% | < 0% | 22.2% | < 0% | 13.7% | 1.75% | 15.7% | 8.85% | 26.9% | < 0% | 10.7% | 20.8% | inhibition at 10 µM (UACC-62): 23.9%; inhibition at 10 µM (MOLT-4): 19.9%; inhibition at 10 µM (M14): < 0%; inhibition at 10 µM (SF-295): 4.05%; inhibition at 10 µM (MDA-MB-468): 17.4%; inhibition at 10 µM (LOX IMVI): 0.51%; inhibition at 10 µM (KM12): 6.2%; inhibition at 10 µM (SK-MEL-2): 2.91%; inhibition at 10 µM (HCC-2998): < 0%; inhibition at 10 µM (HOP-62): 1.53%; inhibition at 10 µM (786-0): < 0%; inhibition at 10 µM (NCI-H23): 2.58%; inhibition at 10 µM (OVCAR-4): 8.29%; inhibition at 10 µM (ACHN 1): < 0%; melting point: 213 to 215 °C
